From PubChem BioAssay AID1963834 (Molecular Pharmacology Branch, DTP, NCI, 2024)

Test system: 873145-292-R-J1-PDC complex spheroid viability
Assay: Anticancer human tumor 873145-292-R-J1-PDC patient-derived renal clear cell carcinoma cell line growth inhibition [POLQ]
Settings: for IC50: curve of first compound; for viability, T/C: stronger effect = lower value
Summary of the method: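 Growth inhibition in 3D: complex spheroids (tumor PDC, HUVEC, MSC) treated with POLQ inhibitor combinations; where Cmax unknown, highest tested concentration 10 microM, except SN-38 at 1 microM.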

[1] = second compound 0.0316 µM, first compound 0.0316 µM
[2] = second compound 0.0316 µM, first compound 0.1 µM
[3] = second compound 0.0316 µM, first compound 0.316 µM
[4] = second compound 0.0316 µM, first compound 1 µM
[5] = second compound 0.0316 µM, first compound 3.16 µM
[6] = second compound 0.0316 µM, first compound 10 µM
[7] = second compound 0.1 µM, first compound 0.0316 µM
[8] = second compound 0.1 µM, first compound 0.1 µM
[9] = second compound 0.1 µM, first compound 0.316 µM
[10] = second compound 0.1 µM, first compound 1 µM
[11] = second compound 0.1 µM, first compound 3.16 µM
[12] = second compound 0.1 µM, first compound 10 µM
[13] = second compound 0.316 µM, first compound 0.0316 µM
[14] = second compound 0.316 µM, first compound 0.1 µM
[15] = second compound 0.316 µM, first compound 0.316 µM
[16] = second compound 0.316 µM, first compound 1 µM
[17] = second compound 0.316 µM, first compound 3.16 µM
[18] = second compound 0.316 µM, first compound 10 µM
[19] = second compound 1 µM, first compound 0.0316 µM
[20] = second compound 1 µM, first compound 0.1 µM
[21] = second compound 1 µM, first compound 0.316 µM
[22] = second compound 1 µM, first compound 1 µM
[23] = second compound 1 µM, first compound 3.16 µM
[24] = second compound 1 µM, first compound 10 µM
[25] = second compound 3.16 µM, first compound 0.0316 µM
[26] = second compound 3.16 µM, first compound 0.1 µM
[27] = second compound 3.16 µM, first compound 0.316 µM
[28] = second compound 3.16 µM, first compound 1 µM
[29] = second compound 3.16 µM, first compound 3.16 µM
[30] = second compound 3.16 µM, first compound 10 µM
[31] = second compound 10 µM, first compound 0.0316 µM
[32] = second compound 10 µM, first compound 0.1 µM
[33] = second compound 10 µM, first compound 0.316 µM
[34] = second compound 10 µM, first compound 1 µM
[35] = second compound 10 µM, first compound 3.16 µM
[36] = second compound 10 µM, first compound 10 µM
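Also: spheroids exposed to compounds for 7 days before viability readout.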
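For viability, T/C in this document: luminescence signal used as surrogate for viable cell content; 100% = DMSO vehicle control viability.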

## O=c1[nH]cc(F)c(=O)[nH]1 + Cc1cccc(N(C)C(=O)C2C(O)CCN2c2nc(C)cc(C(F)(F)F)c2C#N)c1
Second compound 0.0316 µM
  IC50: > 10 µM
Second compound 0.1 µM
  IC50: > 10 µM
Second compound 0.316 µM
  IC50: > 10 µM
Second compound 1 µM
  IC50: > 10 µM
Second compound 3.16 µM
  IC50: > 10 µM
Second compound 10 µM
  IC50: > 10 µM
[1]
  viability, T/C: 106%
[2]
  viability, T/C: 104%
[3]
  viability, T/C: 99.8%
[4]
  viability, T/C: 102%
[5]
  viability, T/C: 115%
[6]
  viability, T/C: 93.3%
[7]
  viability, T/C: 118%
[8]
  viability, T/C: 101%
[9]
  viability, T/C: 103%
[10]
  viability, T/C: 109%
[11]
  viability, T/C: 97.2%
[12]
  viability, T/C: 100%
[13]
  viability, T/C: 98.3%
[14]
  viability, T/C: 106%
[15]
  viability, T/C: 91.4%
[16]
  viability, T/C: 92.4%
[17]
  viability, T/C: 117%
[18]
  viability, T/C: 102%
[19]
  viability, T/C: 102%
[20]
  viability, T/C: 113%
[21]
  viability, T/C: 100%
[22]
  viability, T/C: 95%
[23]
  viability, T/C: 109%
[24]
  viability, T/C: 96.8%
[25]
  viability, T/C: 93.5%
[26]
  viability, T/C: 101%
[27]
  viability, T/C: 87.7%
[28]
  viability, T/C: 92.6%
[29]
  viability, T/C: 101%
[30]
  viability, T/C: 104%
[31]
  viability, T/C: 98.6%
[32]
  viability, T/C: 92.9%
[33]
  viability, T/C: 94.7%
[34]
  viability, T/C: 98.4%
[35]
  viability, T/C: 104%
[36]
  viability, T/C: 92%

## COc1cc(C2c3cc4c(cc3C(OC3OC5COC(C)OC5C(O)C3O)C3COC(=O)C23)OCO4)cc(OC)c1O (stereo not drawn) + Nc1ccc(C#CCN(C(=O)Cc2ncc(C(F)(F)F)cc2C(F)(F)F)c2ccc(F)cc2)nn1
Second compound 0.0316 µM
  IC50: > 10 µM
Second compound 0.1 µM
  IC50: > 10 µM
Second compound 0.316 µM
  IC50: > 10 µM
Second compound 1 µM
  IC50: > 10 µM
Second compound 3.16 µM
  IC50: > 10 µM
Second compound 10 µM
  IC50: > 10 µM
[1]
  viability, T/C: 107%
[2]
  viability, T/C: 104%
[3]
  viability, T/C: 105%
[4]
  viability, T/C: 95.3%
[5]
  viability, T/C: 82.3%
[6]
  viability, T/C: 68%
[7]
  viability, T/C: 107%
[8]
  viability, T/C: 118%
[9]
  viability, T/C: 97.7%
[10]
  viability, T/C: 88.6%
[11]
  viability, T/C: 83.9%
[12]
  viability, T/C: 58.7%
[13]
  viability, T/C: 103%
[14]
  viability, T/C: 106%
[15]
  viability, T/C: 109%
[16]
  viability, T/C: 98.8%
[17]
  viability, T/C: 87.6%
[18]
  viability, T/C: 62%
[19]
  viability, T/C: 99.5%
[20]
  viability, T/C: 105%
[21]
  viability, T/C: 107%
[22]
  viability, T/C: 95.3%
[23]
  viability, T/C: 87.4%
[24]
  viability, T/C: 72.8%
[25]
  viability, T/C: 112%
[26]
  viability, T/C: 109%
[27]
  viability, T/C: 109%
[28]
  viability, T/C: 93.3%
[29]
  viability, T/C: 76.3%
[30]
  viability, T/C: 58.8%
[31]
  viability, T/C: 103%
[32]
  viability, T/C: 107%
[33]
  viability, T/C: 110%
[34]
  viability, T/C: 97.1%
[35]
  viability, T/C: 78.5%
[36]
  viability, T/C: 67.3%

## O=C(Nc1ccc(O)c(NS(=O)(=O)c2ccc(F)cc2)c1)c1ccc(-c2ccccc2)cc1 + Cc1cccc(N(C)C(=O)C2C(O)CCN2c2nc(C)cc(C(F)(F)F)c2C#N)c1
Second compound 0.0316 µM
  IC50: > 10 µM
Second compound 0.1 µM
  IC50: > 10 µM
Second compound 0.316 µM
  IC50: > 10 µM
Second compound 1 µM
  IC50: > 10 µM
Second compound 3.16 µM
  IC50: > 10 µM
Second compound 10 µM
  IC50: > 10 µM
[1]
  viability, T/C: 110%
[2]
  viability, T/C: 98.5%
[3]
  viability, T/C: 105%
[4]
  viability, T/C: 91.6%
[5]
  viability, T/C: 95%
[6]
  viability, T/C: 110%
[7]
  viability, T/C: 107%
[8]
  viability, T/C: 112%
[9]
  viability, T/C: 91.7%
[10]
  viability, T/C: 96%
[11]
  viability, T/C: 105%
[12]
  viability, T/C: 88.6%
[13]
  viability, T/C: 106%
[14]
  viability, T/C: 103%
[15]
  viability, T/C: 91.3%
[16]
  viability, T/C: 92.8%
[17]
  viability, T/C: 112%
[18]
  viability, T/C: 102%
[19]
  viability, T/C: 106%
[20]
  viability, T/C: 109%
[21]
  viability, T/C: 111%
[22]
  viability, T/C: 93.2%
[23]
  viability, T/C: 103%
[24]
  viability, T/C: 104%
[25]
  viability, T/C: 94.9%
[26]
  viability, T/C: 105%
[27]
  viability, T/C: 104%
[28]
  viability, T/C: 99.3%
[29]
  viability, T/C: 99.3%
[30]
  viability, T/C: 95.5%
[31]
  viability, T/C: 96.9%
[32]
  viability, T/C: 107%
[33]
  viability, T/C: 100%
[34]
  viability, T/C: 93.9%
[35]
  viability, T/C: 111%
[36]
  viability, T/C: 102%

## CCc1cc2c(N3CCc4c(cc(Cn5ccnc5)cc4-c4cn(C)nc4C(F)(F)F)C3=O)ccnc2c(OC)n1 + Cc1cccc(N(C)C(=O)C2C(O)CCN2c2nc(C)cc(C(F)(F)F)c2C#N)c1
Second compound 0.0316 µM
  IC50: > 10 µM
Second compound 0.1 µM
  IC50: > 10 µM
Second compound 0.316 µM
  IC50: > 10 µM
Second compound 1 µM
  IC50: > 10 µM
Second compound 3.16 µM
  IC50: > 10 µM
Second compound 10 µM
  IC50: > 10 µM
[1]
  viability, T/C: 92.1%
[2]
  viability, T/C: 114%
[3]
  viability, T/C: 100%
[4]
  viability, T/C: 94.6%
[5]
  viability, T/C: 88%
[6]
  viability, T/C: 83.2%
[7]
  viability, T/C: 99.6%
[8]
  viability, T/C: 118%
[9]
  viability, T/C: 88.9%
[10]
  viability, T/C: 95%
[11]
  viability, T/C: 91.6%
[12]
  viability, T/C: 78.4%
[13]
  viability, T/C: 105%
[14]
  viability, T/C: 101%
[15]
  viability, T/C: 82.2%
[16]
  viability, T/C: 94.6%
[17]
  viability, T/C: 94.6%
[18]
  viability, T/C: 83.7%
[19]
  viability, T/C: 90.5%
[20]
  viability, T/C: 87.3%
[21]
  viability, T/C: 91.7%
[22]
  viability, T/C: 93.4%
[23]
  viability, T/C: 89.7%
[24]
  viability, T/C: 78%
[25]
  viability, T/C: 88.2%
[26]
  viability, T/C: 104%
[27]
  viability, T/C: 85%
[28]
  viability, T/C: 91.3%
[29]
  viability, T/C: 80.1%
[30]
  viability, T/C: 90.1%
[31]
  viability, T/C: 90.1%
[32]
  viability, T/C: 97.3%
[33]
  viability, T/C: 85.3%
[34]
  viability, T/C: 84.5%
[35]
  viability, T/C: 81.2%
[36]
  viability, T/C: 90.3%
